Assay results reported in patent US9387135B2, “Absorbent article” (UNICHARM CORPORATION, priority 2012, dated 2016).

Experiments:
[1] = Surface tension of blood containing blood modifying agent, pendant drop method; settings: 0.10 mass % in sheep defibrinated blood, 35 ° C.
Description: The surface tension of blood containing a blood modifying agent was measured by the pendant drop method, using a Drop Master500 contact angle meter by Kyowa Interface Science Co., Ltd. The surface tension was measured after adding a prescribed amount of blood modifying agent to sheep defibrinated blood, and thoroughly shaking. The measurement was accomplished automatically with a device, and the surface tension γ was determined by the following formula (see FIG. 13). γ=g×ρ×(de)^2×1/H The density ρ was measured at the temperatures listed in Table 5, according to JIS K 2249-1995, “Density test methods and density/mass/volume conversion tables”, “5. Vibrating density test method”. The measurement was accomplished using a DA-505 by Kyoto Electronics Co., Ltd.

[2] = Text: The term “solubility” used herein in regard to water solubility includes cases where the sample completely dissolves in deionized water to form a homogeneous mixture, and cases where the sample is completely emulsified. Here, “completely” means that no mass of the sample remains in the deionized water.

| Water solubility [2] [g] | Compound | Surface tension [1] [mN/m] |
| --- | --- | --- |
|  | CCCCCCCCCCCCOC(=O)CCCCCCCCCCC [ELECTOL WE20, Ester of dodecanoic acid (C12) and dodecyl alcohol (C12)] | 58.8 |
| <0.05 | CCCCCCCC(=O)OCC(COC(=O)CCCCCCC)OC(=O)CCCCCCC [PANACET 800] |  |
